Where a name gives a salt, the structure may show the parent alone.
Assays:
[1] = molecular target: human α-thrombin (Homo sapiens (Human), UniProt P00734); experiment: Enzymatic Assay for Thrombin (Boc-VPR-AMC); type: biochemical
[2] = system: Lectin Pathway; experiment: Lectin Pathway Activation Assay in Human Serum (mannan-coated ELISA, C3c detection); type: biochemical; details: 1% human serum
Method: Microtiter ELISA plate was coated with mannan from Saccharomyces cerevisiae (Sigma-Aldrich, M7504) for overnight at 4° C. in coating buffer [15 mM Na2CO3, 35 mM NaHCO3].

[3] = molecular target: MASP-2 (CCP1-CCP2-SP) (Homo sapiens (Human), UniProt O00187); experiment: Enzymatic Assay for MASP-2 (fluorogenic substrate); type: biochemical
MASP-2 (CCP1-CCP2-SP), sequence (O00187 445-686): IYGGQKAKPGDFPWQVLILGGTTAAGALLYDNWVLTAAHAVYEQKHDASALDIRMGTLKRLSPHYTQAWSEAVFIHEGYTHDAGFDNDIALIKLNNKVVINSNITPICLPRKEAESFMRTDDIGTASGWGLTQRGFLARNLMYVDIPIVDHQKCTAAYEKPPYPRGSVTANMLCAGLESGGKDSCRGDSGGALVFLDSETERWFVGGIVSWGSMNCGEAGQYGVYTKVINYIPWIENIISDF

[4] = molecular target: MASP-2 CCP2-SP (Homo sapiens (Human), UniProt O00187); experiment: MASP-2 co-crystallization, X-ray crystallography and structure analysis (H-bonds, van der Waals contacts); design: van der Waals contact distance, MASP-2 HIS 483 atom CD2 / van der Waals contact distance, MASP-2 HIS 483 atom NE2 / van der Waals contact distance, SER 654 C to compound atom / van der Waals contact distance, SER 654 O to compound atom / van der Waals contact distance, TRP 655 C to compound atom / van der Waals contact distance, MASP-2 GLY 528 atom CA / van der Waals contact distance TRP 655 atom CZ3 / van der Waals contact distance TRP 655 atom N / van der Waals contact distance TRP 655 atom CE3 / van der Waals contact distance GLY 656 atom C / van der Waals contact distance GLY 656 atom CA / van der Waals contact distance GLY 656 atom O / van der Waals contact distance, MASP-2 TYR 607 atom CD1 / van der Waals contact distance, MASP-2 PRO 606 atom O / d(C3,CA1) / d(CA1,N1)2 / d(H4,O1) / d(H4,O2) / d(O1,O2) / d(CA1,O2) / d(CA6,O1) / d(CA6,O2) / d(CA1,C5) / d(O2,H3) / d(N2,C2) / d(CA5,N2) / d(N2,C4) / d(N2,C6) / d(N2,CA3) / d(N2,O3) / d(O4,H2): unit not given beside the values; details: for van der Waals contact distance, MASP-2 amino acid atom to compound atom: ARG 630;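 as to Ligand-pharmacophore element distance, pharmacophore element C2: distance from averaged pharmacophore element to bound ligand; missing value means element absent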;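 as to Ligand-pharmacophore element distance, pharmacophore element C3: distance from averaged pharmacophore element to bound ligand; missing value means element absent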;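 as to Ligand-pharmacophore element distance, pharmacophore element C4: distance from averaged pharmacophore element to bound ligand; missing value means element absent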;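 as to Ligand-pharmacophore element distance, pharmacophore element C5: distance from averaged pharmacophore element to bound ligand; missing value means element absent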
MASP-2 CCP2-SP, sequence (O00187 445-686): as above
MASP-2 CCP2-SP, sequence (O00187 364-432 partner): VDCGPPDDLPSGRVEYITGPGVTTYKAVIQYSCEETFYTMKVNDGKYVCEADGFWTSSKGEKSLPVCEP
Procedure, shortened: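 Contacts and H-bonds come from partially refined soaked-crystal structures of recombinant human CCP2-SP made in E. coli, solved by molecular replacement against 1Q3X fragments. Where several ligand poses appeared, only one was analysed; listed nonbonded contacts may include possible H-bond pairings.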

[5] = Table A5-1 pharmacophore: distance between elements, S2/S1 region
[6] = Table A5-2 pharmacophore distance, S3/S4 region
[7] = Table A7-1, between pharmacophore elements of the bound compound
[8] = Table A7-2, between pharmacophore elements of the bound compound
[9] = Table A8-6, nearest protein atom in cell to the left

## COc1cc(C[C@@H]2CN[C@@H](C(=O)N[C@@H](C)C(=O)NCc3cc(Cl)ccc3-n3cnnn3)C2)cc(OC)c1 [compound 1419, (2R,4S)—N—((S)-1-((5-Chloro-2-(1H-tetrazol-1-yl)benzyl)amino)-1-oxopropan-2-yl)-4-(3,5-dimethoxybenzyl)pyrrolidine-2-carboxamide Trifluoroacetate salt]
[1]
  Ki: < 500 nM
[2]
  IC50: < 50 nM
[3]
  Ki: < 500 nM

## C[C@H](NC(=O)[C@H](N)CCc1cc(Cl)cc(Cl)c1)C(=O)NCc1ccc(C(=N)N)cc1 [compound 1118]
[4]; Table A1 (H-Bonds), GLY 656 N
  H-bond distance to MASP-2 GLY 656 atom N: 3.07
[4]; Table A1 (H-Bonds), GLY 656 O
  H-bond distance to MASP-2 GLY 656 atom O: 2.77
[4]; Table A1 (H-Bonds), SER 628 OG
  H-bond distance to MASP-2 SER 628 atom OG: 3.18
[4]; Table A1 (H-Bonds), SER 654 O
  H-bond distance to MASP-2 SER 654 atom O: 2.88
[4]; Table A1 (H-Bonds), SER 657 O
  H-bond distance to MASP-2 SER 657 atom O: 2.93
[4]; Table A2-1
  van der Waals contact distance, MASP-2 HIS 483 atom CD2: 3.64
[4]; Table A2-3
  van der Waals contact distance, MASP-2 PHE 529 atom CD1: 3.52
[4]; Table A2-4
  van der Waals contact distance, MASP-2 TYR 607 atom CA: 3.79
[4]; Table A2-9, AA atoms CG, CZ
  van der Waals contact distance, MASP-2 amino acid atom to compound atom: 3.85
[4]; Table A2-9 second part, AA atoms N, NE, NH1
  van der Waals contact distance, MASP-2 amino acid atom to compound atom: 3.67
[4]; Table A2-11
  van der Waals contact distance, VAL 653 CG1 to compound atom: 3.86
[4]; Table A2-13, MASP-2 GLY 656 C
  van der Waals contact distance GLY 656 atom C: 3.63
[4]; Table A2-13, MASP-2 TRP 655 CZ3
  van der Waals contact distance TRP 655 atom CZ3: 3.69
[4]; Table A2-13, MASP-2 TRP 655 N
  van der Waals contact distance TRP 655 atom N: 3.76
[4]; Table A2-14, MASP-2 SER 657 C, columns c12-c13 (inferred)
  van der Waals contact distance SER 657 atom C: 3.8
[4]; Table A4-1, element C2
  Ligand-pharmacophore element distance, pharmacophore element C2: 0
[4]; Table A4-1, element C3
  Ligand-pharmacophore element distance, pharmacophore element C3: 0
[4]; Table A4-1, element C4
  Ligand-pharmacophore element distance, pharmacophore element C4: 2.54
[4]; Table A4-1, element C5
  Ligand-pharmacophore element distance, pharmacophore element C5: 0
[4]; Table A4-1, element C6
  Ligand-pharmacophore element distance, pharmacophore element C6: 1.17
[4]; Table A4-1, element C7
  Ligand-pharmacophore element distance, pharmacophore element C7: 0
[4]; Table A4-1, element CA1
  Ligand-pharmacophore element distance, pharmacophore element CA1: 0.43
[4]; Table A4-1, element CA2
  Ligand-pharmacophore element distance, pharmacophore element CA2: 0.69
[4]; Table A4-1, element CA3
  Ligand-pharmacophore element distance, pharmacophore element CA3: 0
[4]; Table A4-1, element CA4
  Ligand-pharmacophore element distance, pharmacophore element CA4: 0
[4]; Table A4-1, element CA5
  Ligand-pharmacophore element distance, pharmacophore element CA5: 0
[4]; Table A4-1, element CA6
  Ligand-pharmacophore element distance, pharmacophore element CA6: 0
[4]; [5]
  d(CA1,N1): 3.55
  d(CA1,O1): 4.35
  d(CA1,O2): 4.33
  d(H4,O1): 4.85
  d(H4,O2): 4.52
  d(O1,O2): 3.25
[4]; [6]
  d(N2,C4): 7.40
  d(N2,C4)4: 7.40
  d(N2,C6): 8.27
  d(N2,CA2): 5.84
  d(O2,H3): 5.85
  d(O2,N2): 2.67
[4]; Table A6-1 pharmacophore angle
  a(CA1, O1, O2): 111.55
  a(O1, O2, H4): 139.63
[4]; Table A6-1 pharmacophore angle, all compounds with protonatable center N1 except Methyl-amino-pyridine
  A(N1, CA1, O1) a): 162.73
[4]; Table A6-2 pharmacophore angle
  a(O1, O2, H3): 152.79
  a(O1, O2, N2): 137.47
  a(O2, N2, C4): 162.84
  a(O2, N2, C4) 2: 125.21
  a(O2, N2, C6): 88.59
  a(O2, N2, CA2): 154.60
[4]; [7]
  Pharmacophore torsion angle a(H4, O1, O2, H3): 38.74
  Pharmacophore torsion angle a(H4, O1, O2, N2): 128.20
  Pharmacophore torsion angle a(N1, CA1, O2, H4): −132.91
  Pharmacophore torsion angle a(O1, H4, O2, CA1): −65.17
[4]; [8]
  Pharmacophore torsion angle a(O1, O2, N2, C6): 150.07
  Pharmacophore torsion angle a(O1, O2, N2, CA2): 145.00
[4]; Table A8-6, 6th residue column, nearest protein atom in cell to the left
  Pharmacophore protein distance to MET_658 (first MET_658 column): 1.45
[4]; Table A8-6, 9th residue column, nearest protein atom in cell to the left
  Pharmacophore protein distance to MET_658 (second MET_658 column): 3.28
[4]; [9]
  Pharmacophore protein distance to GLY_528: 3.82
  Pharmacophore protein distance to PHE_529: 3.01
  Pharmacophore protein distance to PRO_608: 4.83
  Pharmacophore protein distance to SER_611: 3.12
[4]; Table A8-6, pharmacophore elements C6, CA3, O3, H1, nearest protein atom in cell to the left
  Pharmacophore protein distance to TRP_655: 3.71
[1]
  Ki: < 500 nM
[3]
  Ki: < 500 nM
